# Test results as given in US9730940B2, “Purine inhibitors of human phosphatidylinositol 3-kinase delta” (priority 2012, dated 2017).
# Molecular target: PI3K-alpha (Homo sapiens (Human), UniProt P42336)
# Assay: HTRF PI3K biochemical assay, alpha isoform
# Conditions: ratio PI3K-alpha IC50 value/PI3K-delta IC50 value
# Source text: HTRF PI3K Biochemical Assay to Measure Intrinsic Potency of Compound Inhibitors
# The PI3-Kinase biochemical assays were developed to measure the intrinsic potency and compound dependent inhibition of the alpha, beta, delta, and gamma PI3K isoform enzymes. This assay was developed and further optimized from a kit produced by Upstate (Millipore catalog #33-047) and has been configured for HTS and SAR screening. Briefly, this procedure exploits the exquisite specificity and high affinity binding of enzyme reaction substrate phosphatidyl(3,4,5)triphosphate (PIP3) to the GRP1 pleckstrin homology (PH) domain to generate the signal. In the absence of PIP3, an HTRF (Homogeneous Time-Resolved Fluorescence energy transfer) complex is formed consisting of europium (Eu)-labeled anti-GST, GST tagged GRP1-PH domain, biotin-PIP3 and streptavidin conjugated APC. The native PIP3 produced by PI3-Kinase activity disrupts in a competitive manner the biotin-PIP3 from the PH domain, resulting in the loss of energy transfer (HTRF complex) and a decrease in the signal. The format of this assay is the same for all 4 isoforms of PI3K; the differences lie in the concentration of enzyme used to achieve robust assay window. The alpha, beta, and delta assays are run at 0.5, 1, and 0.3 nM enzymes and the gamma assay is run at 5 nM enzyme. The ATP concentration is 100 uM in the alpha, beta, and delta assays and 50 uM ATP in the gamma assay. All reactions are run at 5 uM PIP2.
# Compounds are serially diluted (3-fold in 100% DMSO) across a 384-well polypropylene source plated from column 3 to column 12 and column 13 to column 22, to yield 10 concentration dose response for each test compound. Columns 1, 2, 23 and 24 contain either only DMSO or pharmacological known control inhibitor.
# The PI3-Kinase biochemical assay was optimized using the HTRF kit provided by Upstate (Millipore). The assay kit contains six reagents: 1) 4× Reaction Buffer; 2) native PIP2 (substrate); 3) Stop (EDTA); 4) Detection Mix A (Streptavidin-APC); 5) Detection Mix B (Eu-labeled Anti-GST plus GST-tagged PH-domain); 6) Detection Mix C.
# PI3Kinase Reaction Buffer is prepared by dilution the stock 1:4 with de-ionized water. […] Enzyme addition and compound pre-incubation are initiated by the addition of 1.25 ul of PI3K (at twice its final concentration) in the 1× reaction buffer to all wells using a BioRaptor. Plates are incubated at room temperature for 15 minutes. Reactions are initiated by addition of 1.25 ul of 2× substrate solution (PIP2 and ATP in 1× reaction buffer) using BioRaptor. Plates are incubated in humidified chamber at room temperature for one hour. Reactions are quenched by addition of 0.625 uL of stop solution to all wells using the BioRaptor. The quenched reactions are then processed to detect product formation by adding 0.625 uL of Detection Solution to all wells using the BioRaptor (Detection mix C, Detection Mix A, and Detection Mix B combined together in an 18:1:1 ratio prepared 2 hours prior to use).
# The loss of the HTRF signal is due to the displacement of biotinylated-PIP3 from the PH domain by the PI3K-dependent conversion of PIP2 to PIP3. This loss of signal is nonlinear with respect to both increasing product and time. This non-linear detection will impact accuracy of IC50 calculations; therefore, there is a need for a correction factor to obtain more accurate IC50 values. This correction is derived from a PIP3 standard curve run in a separate assay plate. All data were calculated using the ratio of acceptor (APC) to donor (Europium) fluorescence in each well of the assay plate. […] An IC50 was then calculated fitting the % inhibition data to the equation: % inhibition=min+(Max−min)/1+([inhibitor]/IC50)^n) where min is the % inhibition […], max is the signal in DMSO control, and n is the Hill slope.
# PI3K-alpha, sequence (P42336 whole entry, looked up, canonical isoform): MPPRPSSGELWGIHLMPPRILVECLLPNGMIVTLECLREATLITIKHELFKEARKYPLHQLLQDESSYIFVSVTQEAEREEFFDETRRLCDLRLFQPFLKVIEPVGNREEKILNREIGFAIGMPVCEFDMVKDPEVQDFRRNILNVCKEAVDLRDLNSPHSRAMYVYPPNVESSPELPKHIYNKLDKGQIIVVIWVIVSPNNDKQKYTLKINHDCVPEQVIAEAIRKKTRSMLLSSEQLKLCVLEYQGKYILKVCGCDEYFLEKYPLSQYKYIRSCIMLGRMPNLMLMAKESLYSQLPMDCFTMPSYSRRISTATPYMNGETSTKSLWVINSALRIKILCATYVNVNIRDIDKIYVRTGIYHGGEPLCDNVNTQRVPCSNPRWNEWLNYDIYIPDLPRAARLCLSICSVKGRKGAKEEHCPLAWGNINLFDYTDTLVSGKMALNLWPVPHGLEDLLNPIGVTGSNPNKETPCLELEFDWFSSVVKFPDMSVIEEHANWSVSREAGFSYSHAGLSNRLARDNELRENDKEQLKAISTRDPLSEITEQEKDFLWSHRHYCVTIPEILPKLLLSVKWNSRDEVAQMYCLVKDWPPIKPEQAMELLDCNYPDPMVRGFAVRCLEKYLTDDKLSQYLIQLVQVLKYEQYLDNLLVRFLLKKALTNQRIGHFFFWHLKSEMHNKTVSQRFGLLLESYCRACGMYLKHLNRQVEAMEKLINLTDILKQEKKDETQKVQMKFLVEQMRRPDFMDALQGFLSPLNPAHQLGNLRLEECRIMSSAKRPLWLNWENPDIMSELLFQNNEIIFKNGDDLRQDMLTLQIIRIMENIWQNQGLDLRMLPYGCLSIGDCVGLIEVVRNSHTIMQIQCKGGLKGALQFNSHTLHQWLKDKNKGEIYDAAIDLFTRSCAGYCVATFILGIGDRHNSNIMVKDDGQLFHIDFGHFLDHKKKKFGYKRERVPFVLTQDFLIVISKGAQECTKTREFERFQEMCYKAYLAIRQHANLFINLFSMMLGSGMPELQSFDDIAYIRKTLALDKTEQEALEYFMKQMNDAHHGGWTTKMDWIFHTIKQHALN
# PI3K-alpha, sequence (P27986 whole entry partner, looked up, canonical isoform): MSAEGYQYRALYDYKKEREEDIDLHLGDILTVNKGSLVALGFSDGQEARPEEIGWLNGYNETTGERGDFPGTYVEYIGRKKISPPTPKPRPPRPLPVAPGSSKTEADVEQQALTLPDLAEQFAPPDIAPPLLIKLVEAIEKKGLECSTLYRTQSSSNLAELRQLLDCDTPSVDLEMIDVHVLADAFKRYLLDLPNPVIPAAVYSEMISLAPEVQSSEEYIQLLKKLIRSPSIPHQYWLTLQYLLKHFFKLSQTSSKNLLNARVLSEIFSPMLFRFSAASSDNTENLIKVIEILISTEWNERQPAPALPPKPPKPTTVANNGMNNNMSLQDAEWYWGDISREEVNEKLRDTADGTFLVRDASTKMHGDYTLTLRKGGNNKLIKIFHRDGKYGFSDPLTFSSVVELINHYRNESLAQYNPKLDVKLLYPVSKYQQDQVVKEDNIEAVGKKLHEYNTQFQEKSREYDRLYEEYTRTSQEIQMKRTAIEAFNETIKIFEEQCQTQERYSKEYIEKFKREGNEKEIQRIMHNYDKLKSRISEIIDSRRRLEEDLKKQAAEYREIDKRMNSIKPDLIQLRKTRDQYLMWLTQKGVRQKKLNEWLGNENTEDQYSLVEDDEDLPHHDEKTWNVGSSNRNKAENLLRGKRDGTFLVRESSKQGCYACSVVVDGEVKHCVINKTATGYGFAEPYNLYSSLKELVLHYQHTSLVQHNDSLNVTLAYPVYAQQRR
row,SMILES,Relative Selectivity versus PI3Kalpha
1,"CCC(=O)N1CC[C@H](Oc2ncnc3c2nc(C2=CCOCC2)n3CC)C1 [Compound 14-1, 8-(3,6-dihydro-2H-pyran-4-yl)-9-ethyl-6-{[(3S)-1-propanoylpyrrolidin-3-yl]oxy}-9H-purine]",>10
2,"CCn1c(-c2ccc(OC)nc2)nc2c(O[C@H]3CCN(C(=O)C4CCOCC4)C3)ncnc21 [Compound 3-52, 9-ethyl-8-(6-methoxypyridin-3-yl)-6-{[(3S)-1-(tetrahydro-2H-pyran-4-ylcarbonyl)pyrrolidin-3-yl]oxy}-9H-purine]",>10
3,"CCn1c(-c2cnc(C)nc2)nc2c(OC3CN(C(=O)OC(C)(C)C)CC3F)ncnc21 [Compound 1-44, [(3S,4S) and (3R,4R)]-tert-butyl 3-{[9-ethyl-8-(2-methylpyrimidin-5-yl)-9H-purin-6-yl]oxy}-4-fluoropyrrolidine-1-carboxylate]",>10
4,CCn1c(-c2cnc(C)nc2)nc2c(O[C@H]3CCN(C(=O)N4C5CCC4CC5)C3)ncnc21 [Compound 5-24],>10
5,"CCn1c(-c2cnc(C)nc2)nc2c(O[C@H]3CCN(C(=O)C4CC4F)C3)ncnc21 (single isomer, unassigned) [Compound 2-135, 9-ethyl-6-({(3S)-1-[((1R,2R)- or (1S,2S)-2-fluorocyclopropyl)carbonyl]pyrrolidin-3-yl}oxy)-8-(2-methylpyrimidin-5-yl)-9H-purine]",>10
6,"CCn1ncc(-c2nc3c(O[C@H]4CCN(C(=O)c5ccc(N6CCN(C)CC6)cc5)C4)ncnc3n2C)c1C [Compound 2-21, 8-(1-ethyl-5-methyl-1H-pyrazol-4-yl)-9-methyl-6-{[(3S)-1-{[4-(4-methylpiperazin-1-yl)phenyl]carbonyl}pyrrolidin-3-yl]oxy}-9H-purine]",1
7,"CCn1c(N2CCC(C)CC2)nc2c(O[C@H]3CCN(C(=O)OC(C)(C)C)C3)ncnc21 [Compound 13-4, tert-butyl (3S)-3-{[9-ethyl-8-(4-methylpiperidin-1-yl)-9H-purin-6-yl]oxy}pyrrolidine-1-carboxylate]",>10
8,"CCn1c(-c2cnc(C)nc2)nc2c(O[C@H]3CCN(C(=O)N4CC(OC)C4)C3)ncnc21 [Compound 5-13, 9-ethyl-6-({(3S)-1-[(3-methoxyazetidin-1-yl)carbonyl]pyrrolidin-3-yl}oxy)-8-(2-methylpyrimidin-5-yl)-9H-purine]",>10
9,"COC1CC(c2nc3c(OC4CCN(C(=O)OC(C)(C)C)C4)ncnc3n2C)C1 [Compound 1-31, (S)-tert-butyl 3-((8-(3-methoxycyclobutyl)-9-methyl-9H-purin-6-yl)oxy)pyrrolidine-1-carboxylate]",>5
10,"CCn1c(-c2cnc(C)nc2)nc2c(OC3CN(C(=O)C4CC4)CC3OC)ncnc21 (single isomer, unassigned) [Compound 2-115]",>10
11,CCn1ncc(-c2nc3c(OC4CCC(C(=O)N5CCOCC5)C4)ncnc3n2C)c1C (stereo not shown) [Compound 8-1],9
12,"CCn1c(-c2cnc(C)nc2)nc2c(O[C@H]3CCN(C(=O)N4CC(F)(F)C4)C3)ncnc21 [Compound 5-14, 6-{[(3S)-1-[(3,3-difluoroazetidin-1-yl)carbonyl]pyrrolidin-3-yl}oxy)-9-ethyl-8-(2-methylpyrimidin-5-yl)-9H-purine]",>10
13,"CCn1c(N(C)CC(C)C)nc2c(O[C@H]3CCN(C(=O)OC(C)(C)C)C3)ncnc21 [Compound 13-1, tert-butyl (3S)-3-({9-ethyl-8-[methyl(2-methylpropyl)amino]-9H-purin-6-yl}oxy)pyrrolidine-1-carboxylate]",>10
14,"CCn1ncc(-c2nc3c(O[C@H]4CCN(C(=O)C5CC(=O)N(C)C5)C4)ncnc3n2C)c1C (stereo partly drawn) [Compound 2-62, 4-{[(3S)-3-{[8-(1-ethyl-5-methyl-1H-pyrazol-4-yl)-9-methyl-9H-purin-6-yl]oxy}pyrrolidin-1-yl]carbonyl}-1-methylpyrrolidin-2-one]",>10
15,"CCn1ncc(-c2nc3c(O[C@H]4CCN(c5nncc6ccccc56)C4)ncnc3n2C)c1C [Compound 7-8, 1-[(3S)-3-{[8-(1-ethyl-5-methyl-1H-pyrazol-4-yl)-9-methyl-9H-purin-6-yl]oxy}pyrrolidin-1-yl]phthalazine]",>10
16,"CCn1ncc(-c2nc3c(O[C@H]4CCN(C(=O)c5cnoc5C(C)C)C4)ncnc3n2C)c1C [Compound 2-87, 8-(1-ethyl-5-methyl-1H-pyrazol-4-yl)-9-methyl-6-{[(3S)-1-{[5-(1-methylethyl)isoxazol-4-yl]carbonyl}pyrrolidin-3-yl]oxy}-9H-purine]",>10
17,"CCC(=O)N1CC[C@H](Oc2ncnc3c2nc(C(F)(F)F)n3C)C1 [Compound 14-7, 9-methyl-6-{[(3S)-1-propanoylpyrrolidin-3-yl]oxy}-8-(trifluoromethyl)-9H-purine]",>10
18,"CCn1ncc(-c2nc3c(O[C@H]4CCN(C(=O)C5CCC5)C4)ncnc3n2C)c1C [Compound 2-105, 6-{[(3S)-1-(cyclobutylcarbonyl)pyrrolidin-3-yl]oxy}-8-(1-ethyl-5-methyl-1H-pyrazol-4-yl)-9-methyl-9H-purine]",>10
19,"CCn1c(-c2cnc(OC)c(F)c2)nc2c(O[C@H]3CCN(C(=O)C4CCOCC4)C3)ncnc21 [Compound 3-56, 9-ethyl-8-(5-fluoro-6-methoxypyridin-3-yl)-6-{[(3S)-1-(tetrahydro-2H-pyran-4-ylcarbonyl)pyrrolidin-3-yl]oxy}-9H-purine]",>10
20,"CCn1c(-c2cnc(C)nc2)nc2c(O[C@H]3CCN(C(=O)C4CC4CF)C3)ncnc21 (single isomer, unassigned) [Compound 2-133, 9-ethyl-6-{[(3S)-1-{[(1S,2S)- or (1R,2R)-2-(fluoromethyl)cyclopropyl]carbonyl}pyrrolidin-3-yl]oxy}-8-(2-methylpyrimidin-5-yl)-9H-purine]",>10
21,"CCn1c(-c2cnc(OC)c(F)c2)nc2c(O[C@H]3CCN(C(=O)C4CC4)C3)ncnc21 [Compound 3-53, 6-{[(3S)-1-(cyclopropylcarbonyl)pyrrolidin-3-yl]oxy}-9-ethyl-8-(5-fluoro-6-methoxypyridin-3-yl)-9H-purine]",>10
22,"CCn1ncc(-c2nc3c(CC4CCN(C(=O)C5CCOCC5)C4)ncnc3n2C)c1C (stereo not shown) [Compound 11-2, (3-((8-(1-ethyl-5-methyl-1H-pyrazol-4-yl)-9-methyl-9H-purin-6-yl)methyl)pyrrolidin-1-yl)(tetrahydro-2H-pyran-4-yl)methanone]",>10
23,"CCC(=O)N1CCC(Cc2ncnc3c2nc(-c2cnn(CC)c2C)n3C)C1 (stereo not shown) [Compound 11-3, 1-(3-((8-(1-ethyl-5-methyl-1H-pyrazol-4-yl)-9-methyl-9H-purin-6-yl)methyl)pyrrolidin-1-yl)propan-1-one]",>10
24,"CCn1c(-c2cnc(C)nc2)nc2c(OC3CN(C(=O)C4CC4)CC3O)ncnc21 (single isomer, unassigned) [Compound 2-100, [(3R,4R) or (3S,4S)]-trans-1-(cyclopropylcarbonyl)-4-{[9-ethyl-8-(2-methylpyrimidin-5-yl)-9H-purin-6-yl]oxy}pyrrolidin-3-ol]",>10
25,"CCn1ncc(-c2nc3c(O[C@H]4CCN(C(=O)NC(C)(C)CC(C)(C)C)C4)ncnc3n2C)c1C [Compound 5-4, (3S)-3-{[8-(1-ethyl-5-methyl-1H-pyrazol-4-yl)-9-methyl-9H-purin-6-yl]oxy}-N-(1,1,3,3-tetramethylbutyl)pyrrolidine-1-carboxamide]",>10
